According to PubChem BioAssay (NCI):
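At the GI50, growth is halved. TGI marks complete inhibition of growth.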

What was measured:
Experiment in all cases: DTP human tumour cell line panel, 384-well format
[1] = tested on: HT29 colon
[2] = tested on: BT-549 breast
[3] = tested on: T-47D breast
[4] = tested on: CCRF-CEM leukemia
[5] = tested on: SNB-19 CNS
[6] = tested on: KM12 colon
[7] = tested on: U251 glioblastoma
[8] = tested on: NCI-H522 lung
[9] = tested on: PC-3 prostate
[10] = tested on: CAKI-1 renal
[11] = tested on: SF-539 CNS
[12] = tested on: IGROV1 ovarian
[13] = tested on: RPMI-8226 leukemia
[14] = tested on: COLO 205 colon
[15] = tested on: NCI-H460 NSCLC
[16] = tested on: HOP-92 NSCLC
[17] = tested on: M14 melanoma
[18] = tested on: RXF 393 renal
[19] = tested on: UACC-62 melanoma
[20] = tested on: NCI-H322M lung
[21] = tested on: SF-268 CNS
[22] = tested on: MCF7 breast
[23] = tested on: OVCAR-8 ovarian
[24] = tested on: HOP-62 NSCLC
[25] = tested on: UO-31 renal
[26] = tested on: ACHN renal
[27] = tested on: HCC-2998 colon
[28] = tested on: NCI-H23 lung

Work on C/C(=N\NC(=O)c1cccc(S(=O)(=O)N2CCN(C)CC2)c1)c1cc(Cl)ccc1O yielded a TGI [1] of 13.6 µM, a GI50 [2] of 0.351 µM and a TGI [2] of 4.19 µM. The GI50 [3] was 0.657 µM, the TGI [3] was 9.27 µM and the GI50 [4] was 0.216 µM. For the same compound, the TGI [4] was 1.07 µM, the GI50 [5] was 1.06 µM and the TGI [5] was 6.02 µM. The GI50 [6] was 0.541 µM, the TGI [6] was 14.7 µM and the GI50 [7] was 0.478 µM. It also gave a TGI [7] of 8.25 µM, a GI50 [8] of 0.471 µM and a TGI [8] of 12 µM. The GI50 [9] was 1.16 µM, the TGI [9] was 17.4 µM and the GI50 [10] was 0.472 µM. The TGI [10] was 10.2 µM, the GI50 [11] was 0.442 µM and the TGI [11] was 3.31 µM. For the same compound, the GI50 [12] was 0.339 µM, the TGI [12] was 2.75 µM and the GI50 [13] was 0.339 µM. The TGI [13] was 1.18 µM, the GI50 [14] was 0.236 µM and the TGI [14] was 0.594 µM. It also gave a GI50 [15] of 0.296 µM, a TGI [15] of 1.21 µM and a GI50 [16] of 0.573 µM. The TGI [16] was 6.82 µM, the GI50 [17] was 0.247 µM and the TGI [17] was 1.99 µM. It also gave a GI50 [18] of 0.043 µM, a TGI [18] of 0.557 µM and a GI50 [19] of 0.544 µM. It also gave a TGI [19] of 2.86 µM, a GI50 [20] of 0.231 µM and a TGI [20] of 32 µM. For the same compound, the GI50 [21] was 0.141 µM, the TGI [21] was 2.15 µM and the GI50 [22] was 0.594 µM. It also gave a TGI [22] of 8.01 µM, a GI50 [23] of 0.477 µM and a TGI [23] of 1.95 µM. For the same compound, the GI50 [24] was 0.142 µM, the TGI [24] was 0.898 µM and the GI50 [25] was 0.489 µM. It also gave a TGI [25] of 8.09 µM, a GI50 [26] of 0.627 µM and a TGI [26] of 13.4 µM. For the same compound, the GI50 [27] was 0.0545 µM, the TGI [27] was 15 µM and the GI50 [28] was 0.236 µM. The TGI [28] was 0.59 µM.
